A short description of data set [1]: Metabolic stability in human liver microsomes. In kind it is in vitro ADME. The note with it: for microsomal CLint: 0.5 mg protein/mL. From the text: (§1) According to standard methods of in vitro metabolic stability studies in the art, eg., the methods described in Kerns, Edward H. and Di Li (2008). Drug-like Properties: Concepts, Structure Design and Methods: from ADME to Toxicity Optimization. San Diego: Academic Press; Di, Li et al., Optimization of a Higher Throughput Microsomal Stability Screening Assay for Profiling Drug Discovery Candidates, J. Biomol. Screen. 2003, The method described in 8(4), 453, the liver microsomal metabolic stability test of the compounds of the present disclosure was carried out analogously as follows.
(§2) The incubation system contained 0.5 mg protein/mL microsomes, cofactors, and PBS, was pre-incubated at 37° C. for 3 min, and then added the substrate (i.e., the test compounds) to initiate the reaction. Samples were taken at 0, 1, 5, 10, 15, 20, 30 and 60 min from the start of the reaction, and an appropriate terminator was added to terminate the reaction.
(§3) The terminator was an ice acetonitrile solution containing 100 ng/mL tolbutamide and 100 ng/mL labetalol.
(§4) Sample treatment (n=3): each appropriate sample was added, vortexed and centrifuged at high speed. The supernatants were collected, and the substrate was detected by HPLC-MS/MS. The peak area at the 0 min was taken as 100%. The peak areas at other time points were converted to percentage of the remaining amount. The natural logarithms of the percentage of remaining amount at each time point was plotted against the incubation time, and the slope (−k) was calculated by linear regression. Then, Clint (uL/min/mg) and half-life (T½, min) of the compounds were calculated following the equation of the inherent clearance rate (Clint)=(k* volume of incubation solution)/mass of liver microsomes.

The target of data set [2] is T1, RORγt (RORγ-LBD chimeric receptor) (Homo sapiens, UniProt P51449).
T1 construct: host or cells: HEK293T
T1 sequence (P51449 269-508 limits assumed): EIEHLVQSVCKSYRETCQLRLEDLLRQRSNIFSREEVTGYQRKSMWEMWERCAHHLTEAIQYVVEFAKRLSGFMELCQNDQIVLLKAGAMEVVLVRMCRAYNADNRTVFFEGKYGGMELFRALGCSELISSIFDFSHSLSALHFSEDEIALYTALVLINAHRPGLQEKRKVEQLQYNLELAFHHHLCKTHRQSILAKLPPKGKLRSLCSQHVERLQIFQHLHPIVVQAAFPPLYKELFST
Description: Luciferase reporter gene assay of RORγt agonistic activity in HEK293T cells. In kind it is cell-based. Also on record: Emax: dose or concentration left out as unconfirmed. The note with it: for Emax: HEK-293T. From the text: This assay was basically carried out according to the method described in the literature ONCOIMMUNOLOGY, 2016, VOL. 5, NO. 12, e1254854.
The RORγ-LBD coding sequence was inserted into pBIND plasmid (Promega, E1581). This expression vector and a reporter vector (pGL4.35 carrying a stably integrated luciferase reporter gene driven by GAL4 promoter) were co-expressed in HEK293T host cells. When the agonist binds to the corresponding chimeric receptor, the chimeric receptor binds to the GAL4 binding site on the reporter gene carrier and stimulates reporter gene expression. The agonistic activity of the compound on RORγ was determined according to the intensity of the chemiluminescence signal.
1.1 All test compounds were serially diluted at 3-fold dilution with DMSO, with 10 serial dilutions starting from 10 mM; LIT-00093 solution was prepared similarly. […] 1.4 The compound plate was sealed and shaken for 5 min.
Cells were cultured according to ATCC standard operation, and 6*10^6 HEK293T cells were seeded into 100 mm cell culture dishes, cultured overnight in a 37° C., 5% CO2 incubator, and then transfected. Compounds of corresponding concentrations were added for treatment, and the Steady-Glo™ kit (Lot E 2520) was used for further detection.
Chemiluminescence values were detected with Envision 2104; EC50 values were calculated.
% Activity was calculated with the following equation: […]
RLU: […] R L Upositive: average value of positive control R L Uvehicle: average value of negative control
The log values of the compound concentration and % Activity were fitted using Graphad 8.0, to calculate EC50s of the compounds.

In data set [3] the target is T2, GST-RORγ LBD (263-509) (Homo sapiens, UniProt P51449).
T2 construct: GST-RORγ LBD ((263-509) (produced at ChemPartner))
T2 sequence (P51449 263-509): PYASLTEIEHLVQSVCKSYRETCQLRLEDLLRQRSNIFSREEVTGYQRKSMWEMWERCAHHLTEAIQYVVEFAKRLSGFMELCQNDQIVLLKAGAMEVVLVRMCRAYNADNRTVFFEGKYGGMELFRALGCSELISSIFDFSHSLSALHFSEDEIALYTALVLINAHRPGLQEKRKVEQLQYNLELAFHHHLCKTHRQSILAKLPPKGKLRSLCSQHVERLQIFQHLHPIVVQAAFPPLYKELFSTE
Description: TR-FRET assay of agonistic activity on RORγ receptor. The note with it: for EC50: TR-FRET, GST-RORγ LBD with Biotin-SRC1; for Emax %: maximum activation rate, TOP of fitted curve. In kind it is biochemical. How it is done:
A time-resolved fluorescence resonance energy transfer (TR-FRET) assay was used for the compounds of the present disclosure, to determine the agonistic activity of the compounds on the RORγ protein receptor. The agonistic activity is expressed by the concentration for 50% of maximal effect (EC50). The experiment was performed basically with reference to the methods described in ONCOIMMUNOLOGY, 2016, VOL. 5, NO. 12, e1254854.
1. Preparation of RORγ Basal Buffer
A 100 mL basal buffer was prepared, mixed homogeneously and stored for use;
The compounds of the examples shown in the table below were prepared into solutions with DMSO as the solvent, serially diluted at 3-fold dilution to 10 concentrations starting from 10 mM, and added to the corresponding wells of a 384-well plate with each concentration of each compound in duplicate;
a. A 75 nM solution of GST-RORγ LBD ((263-509) (produced at ChemPartner)) and a 4 nM solution of Biotin-SRC1 (Glsbiochem) were prepared with the above basal buffer. The two solutions were 1:1 mixed evenly, and 10 μL of the mixed solution was added into each well of the above 384-well plate. The plate was immediately centrifugated at 1000 rpm for 10 seconds; b. A 1 nM solution of Anti-GST Eu (Cisbio, #61GSTKLA) and a 50 nM solution of SA-APC (Cisbio, […]) were prepared with the above basal buffer. The two solutions were 1:1 mixed evenly, and 10 μL of the mixed solution was added into each well of the above 384-well plate. The plate was immediately centrifugated at 1000 rpm for 10 seconds; c. The resulting 384-well plate was incubated at room temperature for 15 minutes. Data were read on an Envision microplate reader, EC50 values and E max % were calculated.
a. Readings were taken at 665 nm and 615 nm wavelengths respectively on the Envision Microplate Reader, and the ratios between them were normalized. b. Calculation was carried out with the following equation: […]
wherein X is the reading of compounds, Min is the reading of the blank solution, and Max is the reading of 10 μM SRC. c. The concentration-response curve data were fitted by a four-parameter logistic nonlinear regression model, and Emax was the TOP value of the fitted curve.

Data set [4] in a line: Pharmacokinetic (PK) assay in mice. The class given is in vivo. The note with it: CD-1 mice; for CL_obs: values marked **; for AUC(0-t) / Cmax / half-life / Vd / bioavailability: mouse, plasma; for Vd: values marked *, read-out: Vss; for bioavailability: Po 5 mg/kg vs IV 1 mg/kg. How it is done: The PK of each compound was determined as follows: 6 CD-1 mice (obtained from Shanghai Lingchang Biotechnology Co., Ltd.) were divided into two groups, 3 mice in each group. One group was administered intravenously at a dose of 1 mg/kg, and the vehicle was 5% DMSO/40% PEG400/55% (20% 3-CD); one group was administered by oral gavage at a dose of 5 mg/kg, and the vehicle was DMSO/1% methylcellulose (1:99). Blood samples were collected from saphenous vein of lower leg in each group at 0, 0.083, 0.25, 0.5, 1, 2, 4, 6, 8 and 24 h after administration. Approximately 40 μL of the blood samples were collected into anticoagulant tubes containing EDTA-K2. Immediately after collection, the tubes were inverted at least 5 times to ensure uniform mixing, and then placed on ice. The blood samples collected at each time point were centrifuged at 4° C., 8000 rpm for 5 minutes to obtain plasma. Another 1.5 mL centrifuge tube was marked with the compound name, animal number, and time point, and the plasma was transferred to this tube. The plasma was stored at −80° C. until analysis.
Compound concentrations in plasma were determined by UPLC-MS/MS method, and the pharmacokinetic parameters were calculated by Phoenix WinNolin 6.4 pharmacokinetic software on the obtained data.

Data set [5] in a line: Metabolic stability in mouse liver microsomes. The class given is in vitro ADME, CD-1 mice.
Source text: as §1, §2, §3, §4

Molecules are shown by their SMILES. Like-named read-outs stand apart in the source and are kept apart here.

For the compound `CC(C)Cc1ccc(-c2c(Cl)cc(NC(=O)Cc3ccc(S(C)(=O)=O)cc3)cc2Cl)cc1C#N` [LIT-00093, reference compound], in data set [1], the half-life worked out at 0.0783 h, the microsomal CLint amounted to 295 µL/min/mg and the “% Remaining (T = 60 min)” value is listed as 0%. Moreover, in data set [2] (HEK293T, GAL4 luciferase reporter, read-out: EC50), the EC50 turned out to be 116 nM. In data set [2], the Emax was 83.9%.
Regarding `CCS(=O)(=O)c1ccc(C(CO)C(=O)Nc2cc(Cl)c(-c3ccc(S(=O)(=O)C4CC4)cc3)c(Cl)c2)cc1` (single isomer, unassigned) [Example 39, (S)—N-(2,6-dichloro-4′-(cyclopropylsulfonyl)-[1,1′-biphenyl]-4-yl)-2-(4-(ethylsulfonyl)phenyl)-3-hydroxypropionamide or (R)—N-(2,6-dichloro-4′-(cyclopropylsulfonyl)-[1,1′-biphenyl]-4-yl)-2-(4-(ethylsulfonyl)phenyl)-3-hydroxypropionamide], in data set [3], the midpoint of the response, the EC50, lay at 13.5 nM and the Emax % is 181.3%. Further, in data set [4] (IV 1 mg/kg), the CL_obs was 8.22** mL/min/kg, the AUC(0-t) was determined as 2050 ng·h/mL, the Cmax was found to be 1080 ng/mL and the half-life was 3.7 h. The Vd in data set [4] (IV 1 mg/kg) stood at 1.53 L/kg. Moreover, the bioavailability in data set [4] is 17.1%. In data set [4] (Po 5 mg/kg), this compound showed an AUC(0-t) of 1720 ng·h/mL, a Cmax of 400 ng/mL and a half-life of 3 h.
With `CS(=O)(=O)c1ccc(-c2c(Cl)cc(NC(=O)Cc3ccc(S(=O)(=O)CCO)cc3)cc2Cl)cc1` [Example 14, N-(2,6-Dichloro-4′-(methylsulfonyl)-[1,1′-biphenyl]-4-yl)-2-(4-(2-hydroxyethylsulfonyl)phenyl)acetamide], the “% Remaining (T = 60 min)” value in data set [5] (60 min) was determined as 87.3%. For the same compound, the half-life in data set [5] (CD-1) was over 2.42 h. This compound also gave a microsomal CLint in data set [5] (CD-1, 0.5 mg protein/mL) of under 9.6 µL/min/mg. Moreover, in data set [1], the half-life is 1.55 h, the microsomal CLint was 14.9 µL/min/mg and the “% Remaining (T = 60 min)” value was 61.7%. In data set [2], this compound registered an EC50 of 225 nM and a maximal response (Emax) of 40.7%.
As for `CS(=O)(=O)c1ccc(C(CO)C(=O)Nc2cc(Cl)c(-c3ccc(S(=O)(=O)C4CC4)cc3)c(Cl)c2)cc1` (single isomer, unassigned) [Example 37, (S)—N-(2,6-Dichloro-4′-(cyclopropylsulfonyl)-[1,1′-biphenyl]-4-yl)-2-(4-(methylsulfonyl)phenyl)-3-hydroxypropionamide or (R)—N-(2,6-dichloro-4′-(cyclopropylsulfonyl)-[1,1′-biphenyl]-4-yl)-2-(4-(methylsulfonyl)phenyl)-3-hydroxypropionamide], in data set [3], the concentration for a half-maximal effect (EC50) was found to be 27.4 nM and the Emax % came out at 197.0%. Moreover, in data set [4] (IV 1 mg/kg), the CL_obs is given as 7.21** mL/min/kg, the AUC(0-t) was 2170 ng·h/mL, the Cmax is 1320 ng/mL and the half-life is 2.2 h. In data set [4] (IV 1 mg/kg), the Vd is 1.27 L/kg. Further, the bioavailability in data set [4] is 15.8%. Besides, in data set [4] (Po 5 mg/kg), the AUC(0-t) worked out at 1440 ng·h/mL, the Cmax worked out at 294 ng/mL and the half-life was 2.6 h.
`CCS(=O)(=O)c1ccc(C(COC)C(=O)Nc2cc(Cl)c(-c3ccc(S(=O)(=O)C4CC4)cc3)c(Cl)c2)cc1` (single isomer, unassigned) [Example 41, (S)—N-(2,6-dichloro-4′-(cyclopropylsulfonyl)-[1,1′-biphenyl]-4-yl)-2-(4-(ethylsulfonyl)phenyl)-3-methoxypropionamide or (R)—N-(2,6-dichloro-4′-(cyclopropylsulfonyl)-[1,1′-biphenyl]-4-yl)-2-(4-(ethylsulfonyl)phenyl)-3-methoxypropionamide]: in data set [3], the EC50 came out at 24.6 nM and the Emax % is listed as 174.7%. Moreover, in data set [4] (IV 1 mg/kg), the CL_obs is listed as 15.4** mL/min/kg, the AUC(0-t) is 1060 ng·h/mL, the peak level (Cmax) was 601 ng/mL and the half-life was 1.7 h. Also, in data set [4] (IV 1 mg/kg), the Vd was found to be 2.02 L/kg. Also, in data set [4], the bioavailability is 116%. In addition, in data set [4] (Po 5 mg/kg), the AUC(0-t) stood at 6380 ng·h/mL, the Cmax is 1450 ng/mL and the half-life is 2.72 h.

The values are drawn from patent publication US20220402867A1, “SULFO-SUBSTITUTED BIARYL COMPOUND OR SALT THEREOF, PREPARATION METHOD THEREFOR, AND USE THEREOF” (Shanghai Litedd Co., Ltd., priority 2019, published 2022).
